Source: patent US5312815A, “Fungicidal (+)-2-(2,4-difluorophenyl)-3-methyl-1-(1H-1,2,4-triazol-1-yl)3-(6-(1H-1, 2,4-triazol-1-yl)pyridazin-3-ylthio) butan-2-ol” (Roussel Morishita Co., Ltd., priority 1992, dated 1994)

Assays:
[1] = Toxicity in maintained administration in rats; format: in vivo, Crj:CD male rat; conditions: 100 or 300 mg/kg once a day, 2 weeks, in 0.5% MC
Description: A 6-week-old Crj:CD male rat (6 rats per group) was maintained on the compound of Example 1 or fluconazole suspended in 0.5% MC at a dose of 100 mg/kg or 300 mg/kg once a day for 2 consecutive weeks. Manifestations of toxicity were observed through observation of general signs, body weight measurement, biochemical examination of blood, organ weight measurements, and postmortem examinations.

[2] = system: Aspergillus fumigatus Kawasaki strain; experiment: In vivo antifungal activity, Aspergillus fumigatus infected mice, i.v.; set-up: species or system mouse; conditions: 12.5 mg/kg i.v. twice a day, 4 days, Example 1 as G2-β-CyD complex, FCZ in saline
Description: (§1) Aspergillus fumigatus Kawasaki strain having been cultured at 27° C. for 1 week was suspended in physiological saline, and the cell suspension (3×10^6 cells) was injected into the tail vein of a 4-week-old day male mouse (9 mice per group). Two days before the infection and on the day of the infection, 100 mg/kg of cyclophosphamide was intraperitoneally administered to each animal.
(§2) For comparison, fluconazole was used as a comparative substance.

[3] = system: Candida albicans CAA-14 strain; experiment: In vivo antifungal activity, Candida albicans infected mice, i.v.; set-up: species or system ICR male mouse; conditions: 5 mg/kg i.v. twice a day, 2 days, Example 1 as G2-β-CyD complex, FCZ in saline
Description: as §1, with “Candida albicans CAA-14” for “Aspergillus fumigatus Kawasaki”, “30°” for “27°”, “24 hours” for “1 week”, “(5×10^6” for “(3×10^6”, “5-week-old ICR” for “4-week-old day”
as §2

[4] = system: Aspergillus fumigatus Kawasaki strain; experiment: In vivo antifungal activity, Aspergillus fumigatus infected mice, oral; set-up: species or system mouse; conditions: 25 mg/kg p.o. twice a day, 4 days, in 0.5% MC (ITZ: in PEG 400); for Mean Survival Days: 10 days observation; for Survival Number on Day 1 / Survival Number on Day 2 / Survival Number on Day 3 / Survival Number on Day 4: of 9 mice
Description: as §1, with “Asperoillus” for “Aspergillus”, “the” for “the cell”
For comparison, compound (A) shown below which is described in EP 0421210A2, fluconazole (FCZ) and itraconazole (ITZ), were used as a comparative substance. Itraconazole was administered in a polyethylene glycol (400) solution. [drawing 4]

Acute toxicity in mice = format: in vivo, ICR male mouse; conditions: 1000 mg/kg oral, in 0.5% MC, 5 mice per group, 7 days

OC(Cn1cncn1)(Cn1cncn1)c1ccc(F)cc1F [FCZ, fluconazole, reference compound]
manifestations of toxicity [1]: production of hepatomegaly and enlargement of the suprarenalcapsules, with the degree thereof depending on dosage
Mean Survival Days ([2]; 10 days observation): 2.0 days
Survival Number on Day 1 ([2]; of 9 mice): 9
Survival Number on Day 2 ([2]; of 9 mice): 9
Survival Number on Day 3 ([2]; of 9 mice): 0
Mean Survival Days ([3]; 10 days observation): 6.3 days
Survival Number on Day 1 ([3]; of 9 mice): 9
Survival Number on Day 2 ([3]; of 9 mice): 9
Survival Number on Day 3 ([3]; of 9 mice): 8
Survival Number on Day 4 ([3]; of 9 mice): 8
Survival Number on Day 5 ([3]; of 9 mice): 8
Survival Number on Day 6 ([3]; of 9 mice): 6
Survival Number on Day 7 ([3]; of 9 mice): 3
Survival Number on Day 8 ([3]; of 9 mice): 2
Survival Number on Day 9 ([3]; of 9 mice): 2
Survival Number on Day 10 ([3]; of 9 mice): 1
Mean Survival Days [4]: 2.0 days
Survival Number on Day 1 [4]: 9
Survival Number on Day 2 [4]: 9
Survival Number on Day 3 [4]: 0

CCC(C)n1ncn(-c2ccc(N3CCN(c4ccc(OCC5COC(Cn6cncn6)(c6ccc(Cl)cc6Cl)O5)cc4)CC3)cc2)c1=O (stereo not shown) [ITZ, itraconazole, reference compound]
Mean Survival Days [4]: 2.1 days
Survival Number on Day 1 [4]: 9
Survival Number on Day 2 [4]: 9
Survival Number on Day 3 [4]: 9
Survival Number on Day 4 [4]: 1

Cc1nnc(SC(C)C(O)(Cn2cncn2)c2ccc(F)cc2F)s1 (stereo not shown) [compound (A), reference compound]
life or death, acute toxicity (Acute toxicity in mice): all of the mice died
Mean Survival Days [4]: 2.3 days
Survival Number on Day 1 [4]: 9
Survival Number on Day 2 [4]: 9
Survival Number on Day 3 [4]: 3
Survival Number on Day 4 [4]: 0
